Drawing on patent US20210189342A1, “COMPOSITIONS AND METHODS FOR MODULATING MONOCYTE AND MACROPHAGE INFLAMMATORY PHENOTYPES AND IMMUNOTHERAPY USES THEREOF” (Verseau Therapeutics, Inc., priority 2018, published 2021), this text covers IC50 for 22 substances.

A value given as a limit tells only on which side of the number the result lay.

Common to all, as to assay type: cell-based, human
What all share (settings): Hepa1-6 + reporter plasmid, 24 hr

The test system of one data set is SIGLEC9. In words: siRNA dose response, SIGLEC9 mRNA knockdown, Dual-Glo Luciferase Assay. The procedure:
(§1) Dose response curves for siRNAs were generated in vitro using a variety of cell lines according to Table 4.
(§2) Briefly, cells were seeded in 96-well plates and reverse transfected with siRNA, Lipofectamine® 2000 (0.5 uL/well; ThermoFisher), and, in some cases, a reporter plasmid (50 ng/well). The reporter plasmid (psiCHECK™-2, Promega) encoded both firefly luciferase and the gene of interest fused to renilla luciferase; silencing of the gene of interest results in proportional silencing of renilla luciferase but leaves firefly luciferase unaffected as an internal control.
(§3) After 24 hr incubation at 37° C., mRNA knockdown was measured using an endpoint assay. For targets without a reporter plasmid, a branched DNA (bDNA) assay was performed according to the manufacturer's instructions (QuantiGene® Singleplex Gene Expression Assay, ThermoFisher) to measure both the target gene and GAPDH (housekeeping gene) mRNA. Data are plotted as siRNA concentration (nM) vs. remaining mRNA (ratio of target gene to GAPDH, normalized to mock siRNA-transfected cells). For targets with a reporter plasmid, a Dual-Glo® Luciferase Assay was performed according to the manufacturer's instructions (Promega) to measure firefly and renilla luciferase expression. Data are plotted as siRNA concentration (nM) vs. remaining mRNA (ratio of renilla to firefly luminescence, normalized to mock siRNA-transfected cells).
(§4) For all dose response curves, a 4-parameter logistic model was applied to determine the IC50 of each siRNA sequence (Table 5 and FIG. 2). Data shown in Table 5 and FIG. 2 represent the mean of quadruplicates, +/−standard deviation.

For another data set, the system named is CD84. Nature of the data set: siRNA dose response, CD84 mRNA knockdown, Dual-Glo Luciferase Assay. The procedure:
as §1, §2, §3, §4

Another data set relates to CD48. In words: siRNA dose response, CD48 mRNA knockdown, Dual-Glo Luciferase Assay. As to the method:
as §1, §2, §3, §4

By IC50 is commonly meant the concentration at which inhibition is half-maximal. On to “XD-09190: siRNA targeting SIGLEC9 (sense 5'-ccGuccAucucAAcGuGucdTsdT-3'; antisense 5'-GAcACGUUGAGAUGGACGGdTsdT-3'; RNA with 2'-O-methyl and phosphorothioate modifications, case key not given here, as printed in the source, key not given here)”, for which, in the data set with SIGLEC9, the IC50 worked out at 0.905 nM. As for “XD-09192: siRNA targeting SIGLEC9 (sense 5'-caGuAuccAcAGucuuGGGdTsdT-3'; antisense 5'-CCcAAGACUGUGGAuACUGdTsdT-3'; RNA with 2'-O-methyl and phosphorothioate modifications, case key not given here, as printed in the source, key not given here)”, the IC50 in the data set with SIGLEC9 was determined as 0.236 nM. Regarding “XD-09193: siRNA targeting SIGLEC9 (sense 5'-guAuccAcAGucuuGGGAAdTsdT-3'; antisense 5'-UUCCcAAGACUGUGGAuACdTsdT-3'; RNA with 2'-O-methyl and phosphorothioate modifications, case key not given here, as printed in the source, key not given here)”, the IC50 with SIGLEC9 was found to be 0.459 nM. Still for that read-out and setting: the figure for “XD-09194: siRNA targeting SIGLEC9 (sense 5'-cucAGcAGGucuAccuGAAdTsdT-3'; antisense 5'-UUcAGGuAGACCUGCUGAGdTsdT-3'; RNA with 2'-O-methyl and phosphorothioate modifications, case key not given here, as printed in the source, key not given here)” is 5.63 nM. Regarding “XD-09195: siRNA targeting SIGLEC9 (sense 5'-gcGuGGGAGAuAcgGGcAudTsdT-3'; antisense 5'-AUGCCCGuAUCUCCcACGCdTsdT-3'; as printed in the source, key not given here)”, the half-inhibitory concentration (IC50) in the data set with SIGLEC9 came to 0.125 nM. As to “XD-09197: siRNA targeting SIGLEC9 (sense 5'-ggAGAuAcGGGcAuAGAGGdTsdT-3'; antisense 5'-CCUCuAUGCCCGuAUCUCCdTsdT-3'; as printed in the source, key not given here)”, the IC50 in the data set on SIGLEC9 was determined as 0.851 nM.

For “XD-09610: siRNA targeting CD84 (sense 5'-accAAAAAuuAcAcAGAGudTsdT-3'; antisense 5'-ACUCUGUGuAAUUUUUGGUdTsdT-3'; as printed in the source, key not given here)”, in the data set with CD84, the IC50 worked out at 0.047 nM.

Take “XD-09611: siRNA targeting CD84 (sense 5'-gaGGGuAAuGuccuucAAAdTsdT-3'; antisense 5'-UUUGAAGGAcAUuACCCUCdTsdT-3'; as printed in the source, key not given here)”: in the data set with CD84, the IC50 worked out at 0.082 nM. For the substance “XD-09612: siRNA targeting CD84 (sense 5'-gguAAuGuccuucaAAucudTsdT-3'; antisense 5'-AGAUUUGAAGGAcAUuACCdTsdT-3'; as printed in the source, key not given here)”, the IC50 in the data set on CD84 was 0.351 nM.

In the case of “XD-09613: siRNA targeting CD84 (sense 5'-ucAuAuGAucAuuuAAGGAdTsdT-3'; antisense 5'-UCCUuAAAUGAUcAuAUGAdTsdT-3'; RNA with 2'-O-methyl and phosphorothioate modifications, case key not given here, as printed in the source, key not given here)”, the IC50 in the data set with CD84 turned out to be 0.241 nM.

With “XD-09614: siRNA targeting CD84 (sense 5'-gaAcAcAGuuuAuuccGAAdTsdT-3'; antisense 5'-UUCGGAAuAAACUGUGUUCdTsdT-3'; as printed in the source, key not given here)”, in the data set with CD84, the IC50 was less than 0.005 nM. On to “XD-09615: siRNA targeting CD84 (sense 5'-ggAAcuGGGuAuAauccAAdTsdT-3'; antisense 5'-UUGGAUuAuACCcAGUUCCdTsdT-3'; as printed in the source, key not given here)”, for which, in the data set on CD84, the half-maximal inhibitory concentration (IC50) is 0.048 nM. Regarding “XD-09616: siRNA targeting CD84 (sense 5'-gcAccAAcuAccAuuAGcAdTsdT-3'; antisense 5'-AGCuAAUGGuAGUUGGUGCdTsdT-3'; RNA with 2'-O-methyl and phosphorothioate modifications, case key not given here, as printed in the source, key not given here)”, the IC50 in the data set on CD84 was determined as 0.067 nM. On to “XD-09617: siRNA targeting CD84 (sense 5'-cacuAcAGuuAAcgcuGAAdTsdT-3'; antisense 5'-UUcAGCGUuAACUGuAGUGdTsdT-3'; as printed in the source, key not given here)”, for which the IC50 with CD84 was found to be 0.01 nM. For “XD-09618: siRNA targeting CD84 (sense 5'-gguAucAGGAAucaAAAuudTsdT-3'; antisense 5'-AAUUUUGAUUCCUGAuACCdTsdT-3'; as printed in the source, key not given here)”, the half-maximal inhibitory concentration (IC50) in the data set on CD84 was less than 0.005 nM. As for “XD-09619: siRNA targeting CD84 (sense 5'-ccuuAcAGcAuAAcuAAuudTsdT-3'; antisense 5'-AAUuAGUuAUGCUGuAAGGdTsdT-3'; RNA with 2'-O-methyl and phosphorothioate modifications, case key not given here, as printed in the source, key not given here)”, in the data set with CD84, the IC50 is less than 0.005 nM. For the substance “XD-09720: siRNA targeting CD48 (sense 5'-cucuGGAAuuGcuacuGcudTsdT-3'; antisense 5'-AGcAGuAGcAAUUCcAGAGdTsdT-3'; as printed in the source, key not given here)”, in the data set with CD48, the IC50 is 0.012 nM. “XD-09721: siRNA targeting CD48 (sense 5'-cuAAccuGGuuuuauAcuudTsdT-3'; antisense 5'-AAGuAuAAAACcAGGUuAGdTsdT-3'; RNA with 2'-O-methyl and phosphorothioate modifications, case key not given here, as printed in the source, key not given here)”: in the data set on CD48, the IC50 was determined as 0.009 nM.

For the substance “XD-09722: siRNA targeting CD48 (sense 5'-cuuucGAccAGAAgAuuGudTsdT-3'; antisense 5'-AcAAUCUUCUGGUCGAAAGdTsdT-3'; RNA with 2'-O-methyl and phosphorothioate modifications, case key not given here, as printed in the source, key not given here)”, the IC50 with CD48 turned out to be 0.014 nM.

Consider “XD-09723: siRNA targeting CD48 (sense 5'-uccAGAAAAucuAaGuAcudTsdT-3'; antisense 5'-AGuACUuAGAUUUUCUGGAdTsdT-3'; as printed in the source, key not given here)”, for which, in the data set with CD48, the half-maximal inhibitory concentration (IC50) stood at 0.03 nM. The same measure, in the same setting: the figure for “XD-09724: siRNA targeting CD48 (sense 5'-gaAuccAAAuuuAaAGGcAdTsdT-3'; antisense 5'-UGCCUUuAAAUUUGGAUUCdTsdT-3'; as printed in the source, key not given here)” is 0.055 nM. “XD-09725: siRNA targeting CD48 (sense 5'-cccAAGccuGucAucAAAAdTsdT-3'; antisense 5'-UUUUGAUGAcAGGCUUGGGdTsdT-3'; RNA with 2'-O-methyl and phosphorothioate modifications, case key not given here, as printed in the source, key not given here)”: the half-inhibitory concentration (IC50) in the data set with CD48 came to 0.022 nM.
